Among the data in ChEMBL document CHEMBL4251711, “Bioactive Indolocarbazoles from the Marine-Derived Streptomyces sp. DT-A61” (J Nat Prod, 2018) are IC50 values, retold here.

Test [1] has as its target T1, Mitogen-activated protein kinase kinase kinase 5 (Homo sapiens, UniProt Q99683).
T1 sequence (Q99683 whole entry): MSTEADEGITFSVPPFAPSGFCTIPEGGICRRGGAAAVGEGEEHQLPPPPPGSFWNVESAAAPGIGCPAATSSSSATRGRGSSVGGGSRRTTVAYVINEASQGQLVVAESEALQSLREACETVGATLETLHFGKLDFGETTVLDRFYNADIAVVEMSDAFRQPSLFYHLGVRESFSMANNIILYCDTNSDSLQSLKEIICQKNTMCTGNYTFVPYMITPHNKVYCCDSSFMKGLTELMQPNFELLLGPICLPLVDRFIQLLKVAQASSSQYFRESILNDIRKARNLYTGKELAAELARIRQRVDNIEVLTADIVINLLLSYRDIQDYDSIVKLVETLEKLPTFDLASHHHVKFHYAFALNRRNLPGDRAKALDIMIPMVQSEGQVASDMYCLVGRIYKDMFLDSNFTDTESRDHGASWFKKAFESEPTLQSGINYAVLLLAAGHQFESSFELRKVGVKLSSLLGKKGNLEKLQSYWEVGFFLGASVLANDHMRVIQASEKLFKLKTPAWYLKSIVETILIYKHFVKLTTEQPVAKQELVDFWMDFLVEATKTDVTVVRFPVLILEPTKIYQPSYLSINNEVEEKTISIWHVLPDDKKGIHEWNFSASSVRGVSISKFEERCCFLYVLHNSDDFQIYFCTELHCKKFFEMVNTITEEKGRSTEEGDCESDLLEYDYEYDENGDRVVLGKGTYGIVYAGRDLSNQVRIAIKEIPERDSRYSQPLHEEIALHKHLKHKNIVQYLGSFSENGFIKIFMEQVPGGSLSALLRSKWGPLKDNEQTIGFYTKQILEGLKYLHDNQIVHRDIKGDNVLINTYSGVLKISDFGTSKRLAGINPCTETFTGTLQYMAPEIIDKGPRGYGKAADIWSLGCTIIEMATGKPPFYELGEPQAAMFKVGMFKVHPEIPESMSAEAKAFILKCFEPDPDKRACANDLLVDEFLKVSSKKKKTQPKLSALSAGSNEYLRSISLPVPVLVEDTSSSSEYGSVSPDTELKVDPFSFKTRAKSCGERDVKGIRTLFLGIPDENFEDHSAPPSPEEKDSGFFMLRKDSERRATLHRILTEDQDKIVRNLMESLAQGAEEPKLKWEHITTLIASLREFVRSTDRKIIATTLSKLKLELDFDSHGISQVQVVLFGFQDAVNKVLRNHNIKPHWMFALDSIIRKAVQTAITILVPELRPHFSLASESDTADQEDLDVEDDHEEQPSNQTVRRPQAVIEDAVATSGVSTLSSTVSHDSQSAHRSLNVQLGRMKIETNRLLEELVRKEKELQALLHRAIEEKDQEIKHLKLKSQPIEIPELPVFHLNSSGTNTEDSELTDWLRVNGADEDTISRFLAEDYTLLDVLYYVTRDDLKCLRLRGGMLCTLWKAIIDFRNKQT
Description: Inhibition of ASK1 (unknown origin) by HTRF assay. (In TR-FRET formats the signal depends on donor and acceptor labels being close together.)

Test [2] addresses Rho-associated protein kinase 2 (Homo sapiens, UniProt O75116). Kind of test: Inhibition of ROCK2 (unknown origin) by HTRF assay.
In test [3] the target is Protein kinase C alpha type (Homo sapiens, UniProt P17252). Description: Inhibition of PKCalpha (unknown origin) by HTRF assay.
In test [4] the test system is PC-3. Kind of test: Cytotoxicity against human PC3 cells after 72 hrs by SRB assay. In kind it is functional, cell-based. The note with it: PC-3, 72 h. In general terms: The SRB assay estimates cell density from bound dye.

Chain of Rho-associated protein kinase 2 (O75116 whole entry): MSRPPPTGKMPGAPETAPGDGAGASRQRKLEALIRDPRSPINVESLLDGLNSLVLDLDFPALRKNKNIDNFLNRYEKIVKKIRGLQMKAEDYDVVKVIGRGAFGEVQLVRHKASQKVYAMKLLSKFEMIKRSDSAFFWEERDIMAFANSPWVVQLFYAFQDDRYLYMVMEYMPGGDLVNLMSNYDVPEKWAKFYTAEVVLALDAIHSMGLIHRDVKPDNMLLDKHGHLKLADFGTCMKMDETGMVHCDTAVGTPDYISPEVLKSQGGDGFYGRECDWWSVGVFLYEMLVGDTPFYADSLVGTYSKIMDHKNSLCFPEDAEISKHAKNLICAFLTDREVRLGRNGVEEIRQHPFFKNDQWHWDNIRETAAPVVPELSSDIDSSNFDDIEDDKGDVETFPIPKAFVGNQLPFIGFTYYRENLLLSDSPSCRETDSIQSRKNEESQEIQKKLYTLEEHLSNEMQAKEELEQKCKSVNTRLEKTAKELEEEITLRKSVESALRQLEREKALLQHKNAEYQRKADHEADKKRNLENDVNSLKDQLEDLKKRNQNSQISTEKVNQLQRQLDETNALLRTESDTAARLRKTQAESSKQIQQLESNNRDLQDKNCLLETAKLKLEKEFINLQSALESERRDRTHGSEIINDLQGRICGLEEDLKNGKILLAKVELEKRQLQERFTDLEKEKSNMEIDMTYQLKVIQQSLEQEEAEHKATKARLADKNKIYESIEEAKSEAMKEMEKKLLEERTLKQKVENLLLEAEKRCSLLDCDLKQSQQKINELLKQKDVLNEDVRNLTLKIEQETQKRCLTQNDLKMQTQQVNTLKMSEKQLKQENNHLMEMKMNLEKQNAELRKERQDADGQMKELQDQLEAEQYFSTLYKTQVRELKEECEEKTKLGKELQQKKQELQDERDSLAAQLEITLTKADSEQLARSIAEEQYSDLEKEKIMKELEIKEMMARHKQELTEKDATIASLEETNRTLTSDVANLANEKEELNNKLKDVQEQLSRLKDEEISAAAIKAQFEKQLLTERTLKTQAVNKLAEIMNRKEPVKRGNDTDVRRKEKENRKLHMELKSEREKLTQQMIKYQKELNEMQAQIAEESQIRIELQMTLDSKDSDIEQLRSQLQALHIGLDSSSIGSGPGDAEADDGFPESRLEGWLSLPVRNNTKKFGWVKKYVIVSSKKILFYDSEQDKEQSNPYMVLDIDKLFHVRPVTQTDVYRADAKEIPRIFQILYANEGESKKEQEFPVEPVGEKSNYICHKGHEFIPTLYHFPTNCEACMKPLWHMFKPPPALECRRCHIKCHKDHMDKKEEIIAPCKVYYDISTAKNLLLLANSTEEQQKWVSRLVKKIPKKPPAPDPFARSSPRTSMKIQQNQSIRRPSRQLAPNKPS

The term IC50 denotes the concentration at which inhibition is half-maximal. Regarding `CC(=O)N[C@H]1C[C@H]2O[C@@](C)([C@@H]1O)n1c3ccccc3c3c4c(c5c6ccccc6n2c5c31)C(=O)NC4`, the IC50 in test [1] was found to be 770 nM; in test [2], 260 nM; in test [3], 92 nM; in test [4] it was 160 nM.

For `CC(=O)N[C@@H]1C[C@H](n2c3ccc(O)cc3c3c4c(c5c6ccccc6[nH]c5c32)CNC4=O)O[C@@H](C)[C@@H]1O`, the IC50 in test [1] turned out to be 6400 nM; in test [2], 40 nM; in test [3], 460 nM; in test [4], 3600 nM.

On to `C[C@@H]1O[C@@H](n2c3ccc(O)cc3c3c4c(c5c6ccccc6[nH]c5c32)CNC4=O)C[C@@H](N)[C@H]1O`, for which the half-inhibitory concentration (IC50) in test [1] was found to be 1100 nM; in test [2], 150 nM; in test [3] it was 79 nM; in test [4] it was 3100 nM.

Consider `O=C1NCc2c1c1c3cc(O)ccc3[nH]c1c1[nH]c3ccccc3c21`, for which the 50% inhibitory concentration (IC50) worked out at 3000 nM in test [1], 5.7 nM in test [2], 3200 nM in test [3] and 21000 nM in test [4].

Turning to `C[C@H]1O[C@@H]2C[C@](O)([C@H]1O)n1c3ccccc3c3c4c(c5c6cc(O)ccc6n2c5c31)C(=O)NC4`, the 50% inhibitory concentration (IC50) in test [1] was over 50000 nM; in test [2] it was 340 nM; in test [3], 1400 nM; in test [4] it was 5600 nM.

Regarding `COC1NC(=O)c2c1c1c3ccccc3[nH]c1c1[nH]c3ccc(O)cc3c21` (stereo not given), the IC50 in test [1] is over 50000 nM; in test [2], 910 nM; in test [3], 1400 nM; in test [4] it was 18000 nM.

For the compound `O=C1NCc2c1c1c3ccccc3[nH]c1c1[nH]c3ccc(O)cc3c21`, the half-inhibitory concentration (IC50) in test [1] is 740 nM; in test [2], 340 nM; in test [3], 980 nM; in test [4] it was 8000 nM.

With `CC(=O)N[C@@H]1C[C@H](n2c3ccccc3c3c4c(c5c6cc(O)ccc6[nH]c5c32)CNC4=O)O[C@@H](C)[C@@H]1O`, the 50% inhibitory concentration (IC50) in test [1] is over 50000 nM; in test [2], 1400 nM; in test [3], 97 nM.

Take `C[C@@H]1O[C@@H]2C[C@](O)([C@H]1O)n1c3ccccc3c3c4c(c5c6cc(O)ccc6n2c5c31)C(=O)NC4`: the half-maximal inhibitory concentration (IC50) in test [1] turned out to be 4100 nM; in test [2], 970 nM; in test [3] it was 2100 nM; in test [4], 39000 nM.
